In patent US20260315462A1, “METHODS OF TREATING RELAPSING MULTIPLE SCLEROSIS USING AN INHIBITOR OF BRUTON'S TYROSINE KINASE” (Genentech, Inc., priority 2023, published 2026):
Converted amounts (≈) assume the structure as drawn. Read-outs that look alike come from different tables or passages of the source.

Columns and labels:
[1] = test system: CD69 expression on B cells; details: in vitro human whole blood assay; previously presented Weber M S, et al. AAN 2021; cited from earlier work
[2] = Fenebrutinib concentration in CSF and plasma after 12 weeks of continuous administration (exploratory endpoint); type: in vivo, human
From the text: (§1) Exploratory Endpoints: Exploratory endpoints included the total number of new T1-hypointense lesions on MRI at weeks 4, 8, and 12; the fenebrutinib concentration in CSF collected at baseline and at or after Week 12; and plasma pharmacokinetics.
Results: Exploratory Endpoint-Evaluation of CSF: Cerebrospinal samples (CSF) were taken from 11 patients following 12 weeks of continuous fenebrutinib administration. A blood plasma sample was taken at the same time for 4 of the 11 patients. The concentration of fenebrutinib in CSF at 12 Weeks was evaluated, and presented in FIG. 5 in comparison to the IC50 of fenebrutinib (active inhibitory threshold) and the IC90 of fenebrutinib (maximal inhibitory threshold) as evaluated in different in vitro assays. From the figure, (a) the mean fenebrutinib CSF concentration is following 12 weeks of continuous fenebrutinib administration; (1) the data for CD63 and CD69 assays was previously presented as Weber M S, et al. at AAN 2021 Virtual Annual Meeting, April 17-22. (P15.091); and (2) the data for the phospho-BTK assay was previously presented in Keaney J, et al. J Neuroimmune Pharmacol 2019; 14:448-461. Analysis of fenebrutinib concentration in CSF, plasma, and the ratio for the four patients for which a plasma sample was taken is provided in Table 11.
CD63 is a myeloid lineage cell activation marker; CD69 is a B-cell activation marker; the phospho-BTK assay evaluates target engagement through inhibition of anti-IgM induced BTK Y223 autophosphorylation in human whole blood. Procedures for performing these three assays may be found in Crawford J J, et al. J Med Chem 2018; 6:2227-2245. Fenebrutinib has a dual mechanism of action, inhibiting both B-cell and myeloid lineage cell activation.

[3] = test system: new Gd-enhancing T1 lesions and new or enlarging T2-weighted lesions on brain MRI; assay: Proportion of participants free from any new Gd-enhancing T1 lesions and new or enlarging T2-weighted lesions on brain MRI, Phase II RMS study (secondary endpoint); type: in vivo, human
From the text: (§2) This Phase II study was undertaken to evaluate the effect of fenebrutinib on brain magnetic resonance imaging (MRI) in participants with RMS. Participants were randomized to receive either fenebrutinib or placebo. In addition to MRI evaluations, participants were also monitored for other clinical outcomes of disease, including disability progression and MS relapse, as described more fully below.
(§3) Study Design: This clinical trial comprised a double-blind treatment (DBT) phase, where participants were randomized in a 2:1 ratio to receive either 200 mg BID oral fenebrutinib or non-active placebo, administered for 12 weeks. Participants were directed to self-administer two 100 mg tablets in the morning and two 100 mg tablets in the evening by mouth, for a total dose of 400 mg of fenebrutinib (or placebo) every day.
(§4) A total of 109 adults aged 18-55 with RMS were enrolled in the study: 73 in the fenebrutinib arm, and 36 in the placebo arm. […] Accordingly, the analysis of outcome for the double blind phase of the study included 70 patients in the fenebrutinib arm, and 36 patients in the placebo arm.
MRI Measurements: The primary efficacy endpoint for this study was the total number of new gadolinium-enhancing T1 (T1Gd+) lesions on brain MRI measured at Weeks 4, 8, and 12 of administration. The secondary efficacy outcomes were (1) the total number of new or enlarging T2-weighted lesions on brain MRI measured at Weeks 4, 8, and 12, and (2) the proportion of participants free from any new Gd-enhancing T1 lesions and new or enlarging T2-weighted lesions observed on brain MRI at Weeks 4, 8, and 12. Radiologic evaluation for the primary efficacy parameter was performed using a standardized MRI protocol at screening, and at Weeks 4, 8, and 12 for each participant.
Results: Secondary Endpoint-Proportion of Participants Free from any new Gd+ Enhancing T1 Lesions and New or Enlarging T2-weighted Lesions at Weeks 4, 8, and 12: This secondary endpoint was also met, and a summary of the analysis provided in Table 8.

BTK = details: anti-IgM induced BTK Y223 autophosphorylation in human whole blood; previously presented Keaney J, et al. 2019; cited from earlier work
[4] = test system: new T1-hypointense lesions on MRI; assay: New T1-hypointense lesions on MRI, Phase II RMS study (exploratory endpoint); type: in vivo, human
From the text: as §2, §3, §4, §1
Results: Exploratory Endpoint-Hypointense T1 Lesions: The number of T1 hypointense lesions was evaluated at Week 4, 8, and 12 as an exploratory endpoint. […] FIG. 4 provides bar graphs illustrating some of the data in this table and providing additional analyses. In this figure, the large arrows indicate the relative reduction (95% confidence interval) of lesions. The proportion of patients with new T1 hypointense lesions is the number of participants that have a new lesion at that specific visit alone divided by the number of participants with a scan at that specific visit alone at the indicated week. There was a 58% reduction and only 3.2% of patients with new hypointense T1 lesions at Week 12.

[5] = test system: BCR-dependent B-cell proliferation; details: in vitro cell-based experiments; cited from earlier work

SMILES: C[C@H]1CN(C2COC2)CCN1c1ccc(Nc2cc(-c3ccnc(N4CCn5c(cc6c5CC(C)(C)C6)C4=O)c3CO)cn(C)c2=O)nc1 [Fenebrutinib, (S)-2-(3′-(hydroxymethyl)-1-methyl-5-((5-(2-methyl-4-(oxetan-3-yl)piperazin-1-yl)pyridin-2-yl)amino)-6-oxo-1,6-dihydro-[3,4′-bipyridin]-2′-yl)-7,7-dimethyl-2,3,4,6,7,8-hexahydro-1H-cyclopenta[4,5]pyrrolo[1,2-a]pyrazin-1-one]
- IC90, CD69 (B-cell activation marker) [1]: 0.0432 µg/mL (≈ 0.065 µM)
- presence in CSF relative to in vitro activity ([2]; after 12 weeks of continuous administration): present in the CSF at levels sufficient to reduce activation of B cells and microglia progenitor cells in vitro
- concentration at 2016 h ([2]; human, csf, po, 200 mg, 11 patients, following 12 weeks of continuous administration, read-out: mean fenebrutinib CSF concentration): 43.1 ng/mL
- concentration at 2016 h ([2]; human, csf, po, 200 mg, n = 4 patients, after 12 weeks of continuous administration, 200 mg BID oral, read-out: CSF concentration, Median (min, max)): 50.2 ng/mL
- Kp at 2016 h ([2]; human, csf, po, 200 mg, n = 4 patients, after 12 weeks of continuous administration, total plasma, read-out: CSF:plasma ratio, Median (min, max)): 0.061
- concentration at 2016 h ([2]; human, plasma, po, 200 mg, n = 4 patients, after 12 weeks of continuous administration, 200 mg BID oral, read-out: Total plasma concentration, Median (min, max)): 691 ng/mL
- No. of patients free from T1 Gd+ and T2-weighted lesions, Week 4 ([3]; Week 4, N = 70, placebo 21 of 36): 51
- Proportion free from new T1 Gd+ and new or enlarging T2-weighted lesions, Week 4 ([3]; Week 4, N = 70, placebo 58.3%): 72.9%
- No. of patients free from T1 Gd+ and T2-weighted lesions, Week 8 ([3]; Week 8, N = 67, placebo 20 of 34): 63
- Proportion free from new T1 Gd+ and new or enlarging T2-weighted lesions, Week 8 ([3]; Week 8, N = 67, placebo 58.8%): 94.0%
- No. of patients free from T1 Gd+ and T2-weighted lesions, Week 12 ([3]; Week 12, N = 63, placebo 24 of 33): 61
- Proportion free from new T1 Gd+ and new or enlarging T2-weighted lesions, Week 12 ([3]; Week 12, N = 63, placebo 72.7%): 96.8%
- No. of patients who are free from new T1 Gd+ and New or Enlarging T2-weighted Lesions During DBT ([3]; overall, weeks 4, 8, and 12, N = 70, placebo 18): 51
- Proportion of patients free from new T1 Gd+ and new or enlarging T2-weighted lesions, overall ([3]; overall, weeks 4, 8, and 12, N = 70, placebo 50.0%): 72.9%
- Odds Ratio, adjusted (free from new T1 Gd+ and new or enlarging T2-weighted lesions) ([3]; vs placebo, weeks 4, 8, and 12, 95% CI (exact) (1.317, 13.078), p-value (exact) 0.0117): 4.005
- likelihood to be free from new T1 Gd+ lesions and new or enlarging T2-weighted lesions ([3]; weeks 4, 8, and 12, compared to placebo group): four times more likely to be free from new T1 Gd+ lesions and new or enlarging T2-weighted lesions
- IC90, phospho-BTK (BTK): 0.0404 µg/mL (≈ 0.0608 µM)
- effect on T1 hypointense lesions ([4]; Week 4, 8, and 12, compared to placebo): reduced T1 hypointense lesions at all three time points
- proportion of patients with new T1 hypointense lesions, Week 12 ([4]; Week 12, participants with a new lesion at that visit divided by participants with a scan at that visit): 3.2%
- patients with new T1 hypointense lesions after Week 4 ([4]; after Week 4 of treatment, compared to placebo): few patients had new lesions after Week 4 of treatment
- Relative Reduction of T1 hypointense lesions, Week 4 ([4]; vs placebo, Week 4, 95% CI −106%, 87%): 48%
- Relative Reduction of T1 hypointense lesions, Week 8 ([4]; vs placebo, Week 8, 95% CI −62%, 92%): 64%
- Relative Reduction of T1 hypointense lesions, Week 12 ([4]; vs placebo, Week 12, 95% CI −131%, 92%): 58%
- Relative Reduction of T1 hypointense lesions, Weeks 4, 8, and 12 ([4]; vs placebo, Weeks 4, 8, and 12, 95% CI −12%, 89%): 64%
- BCR-dependent B-cell proliferation [5]: inhibition of BCR-dependent B-cell proliferation
